# According to patent publication US3933904A, “11,15-Dihydroxy-9,13-prostadienoic acid” (American Home Products Corporation, priority 1974, dated 1976):
# What was measured:
# [1] = test system: ADP induced platelet aggregation (human platelet rich plasma); test: ADP induced platelet aggregation in platelet rich plasma (modification of Born and Cross); format: cell-based; details: human PRP, in vitro; for IC50: Platelet, ADP induced (2 to 4 μM ADP), read-out: Concentration which inhibits 50% of platelet aggregation
# Experimental: Platelet aggregation is the initial step in thrombus formation and it is considered that compounds which prevent aggregation or reduce platelet adhesiveness may inhibit the initiation of the arteriosclerotic process. The effect of drugs on aggregation is measured in platelet rich plasma (PRP) containing adenosine diphosphate (ADP) which markedly increases aggregation in vitro and may be a physiological agent for doing so in vivo.
# Human blood is collected from fasted normal blood donors in siliconized 50 ml. Vacutainers that contain 3.8% sodium citrate. Centrifugation at 500 G. for 3 minutes at 5° C. separates the red blood cells from the PRP. The supernatant PRP is pipetted off and the remainder is centrifuged at 1000 G. for 10 minutes at 25° C. to obtain platelet poor plasma for standardization of the automated Payton aggregometer. In the running of the platelet aggregation test a cell containing 1.0 ml. of PRP is stirred at 1,100 rpm and the test compound is added in 0.2 ml. of buffered saline to give an initial concentration of 5 × 10^-^3 M, or 5 × 10^-^4 M. After 3 minutes, a concentration of ADP predetermined to yield marked platelet aggregation (2 to 4 μM) is added in 0.1 ml. of buffered saline. The curve of light transmission at 610 mμ is followed for 6 minutes. Compounds found to be active at the initial concentration are run at lower concentrations. The results are expressed as the concentration which gives 50% inhibition of the ADP induced aggregation.
# [2] = test system: bronchoconstricting effects of a standard dose of acetylcholine; test: Bronchodilation by aerosol inhalation (method of Rosenthale et al.): inhibition of the bronchoconstricting effects of a standard dose of acetylcholine; format: in vivo; details: guinea pig
# From the text: In using the compounds of the invention to produce bronchodilating effects in warm-blooded animals, they may be administered in a variety of dosage forms: oral, injectable, and aerosol inhalation. Aerosol inhalation is a preferred method because of its rapid onset of action, great potency, and specificity of action. The particular dosage to obtain the bronchodilating effect will vary with the particular compound employed, the particular animal involved, and the degree of bronchodilation desired. In the guinea pig, by aerosol inhalation, the dose to produce bronchodilation is from about 1.5 micrograms to about 100 micrograms, and preferably from about 1.5 to about 50 micrograms. The bronchodilation produced upon aerosol inhalation can be observed by the method of Rosenthale et al., J. Pharmacol. Exp. Ther., 178, 541 (1971). Using this procedure the following result was obtained.
# [3] = Hypotension in the anesthetized dog, intravenous route; format: in vivo; details: dose 100 μg/kg
# Experimental: Thus in the anesthetized dog by the intravenous route the dose to produce hypotension is from about 1 μg/kg. to about 200 μg/kg. and preferably from about 10 μg/kg. to about 100 μg/kg. Using this procedure the following results were obtained.
SMILES,IC50 [1] [nM],Inhibition of ADP induced platelet aggregation (at concentration) ([1]; at 2.6 × 10^-^6 M) [%],Percent Inhibition of the bronchoconstricting effects of a standard dose of acetylcholine ([2]; dose 15 μg) [%],Inhibition of ADP induced platelet aggregation (at concentration) ([1]; at 1.5 × 10^-^6 M) [%],Percent Inhibition of the bronchoconstricting effects of a standard dose of acetylcholine ([2]; dose 1.5 μg) [%],Δb.p. [3] [mm. Hg]
CCCCC[C@H](O)/C=C/[C@H]1[C@H](O)C=C[C@@H]1C/C=C\CCCC(=O)O [7-(4α-hydroxy-5β-[(3S)-3-hydroxy-trans-1-octenyl]-2-cyclopenten-1α-yl)-cis-5-heptenoic acid],2600,50,44,–,–,–
CCCCC[C@H](O)/C=C/[C@H]1[C@H](O)C=C[C@@H]1CCCCCCC(=O)O [4α-hydroxy-5β-[(3S)-3-hydroxy-trans-1-octenyl]-2-cyclopentene-1α-heptanoic acid],1200,–,–,63,60,-34
